The source of these data is a melting point compilation (Tetko et al.).

Regarding `Cc1ccccc1C1(C#N)Cc2ccccc2C(=O)O1` (configuration not stated), the melting point lay within 121 to 123 °C.
Then `CCOC(=O)c1nn(-c2ccc(C)cc2)c(C)c1C(=O)c1noc(-c2ccc(Br)cc2)c1S(=O)(=O)c1ccccc1`, with 170 °C.
As to `COC(=O)[C@]12c3ccccc3[C@]34c5ccccc5[C@H]1[C@@]32C(=O)O[C@@H]4C`, the melting point worked out at 203 °C.
Then `O=c1cc[nH]c(=O)[nH]1`, with 338 °C; and `NC(=NO)c1cccc(Cl)c1`, with 115 to 117 °C; and `Cc1cccc(Nc2ccccc2)c1`, with 30 °C.
With `COc1cc(C=C(O)C(F)(F)C(F)(F)F)nc(OC)n1`, the melting point is 58 to 60 °C.
For `COc1cc([N+](=O)[O-])c(OC)cc1Cl` the value was 144 to 145 °C; for `Nc1ncnc2c1ncn2C1(CO)OC(CO)C(O)C1O` (configuration not stated), 212 °C.
Then `N#Cc1c[nH]cc1-c1cccc(Cl)c1Cl`, with 150 °C; and `O=C(O)c1cc([N+](=O)[O-])c(Cl)c([N+](=O)[O-])c1Cl`, with 210 to 215 °C; and `CSc1ccc(C#N)cc1`, with 62 °C.
Then `Nc1ccc(S(=O)(=O)N2CCOCC2)cc1`, with 216 to 218 °C.
`Cc1cc(O)ncc1[N+](=O)[O-]` registered a melting point of 189 °C.
`CCOC(=O)C1C(c2ccccc2)C(C(=O)OCC)C(O)(C(F)(F)F)NC1(O)C(F)(F)F` (configuration not stated) displayed a melting point of 234 °C.
For `CC(=O)Oc1c(I)cc(I)cc1C(=O)Nc1ccc(Cl)cc1` the value was 216 °C; for `Ic1cccc(OCc2ccccc2)c1`, 51 °C.
For `CC1(C)C(C(=O)OC(C#N)c2cccc(Oc3ccccc3)c2)C1(C)C` (configuration not stated) the value was 47.5 °C; for `COc1ccc(C(N)=O)cc1N`, 158 °C.
`O=C(Cl)c1ccc(-c2csnn2)cc1` had a melting point of 168 to 171 °C.
For `CCCCN1CCOCC1` the value was -57.1 °C; for `COC(=O)C(Cl)C(Cl)c1cccc(C(Cl)C(Cl)C(=O)OC)c1` (configuration not stated), 131 °C.
For `Cc1ccc(O)c(C(C)C)c1`, the melting point is 36.5 °C.
Then `O=C1c2ccccc2N(C(=O)CN2CCOCC2)CN1c1ccccc1`, with 136 °C; and `Nc1ccccc1-c1c(-c2ccccc2)noc1-c1ccccc1`, with 185 °C; and `CC(C)CC1Nc2cc(Cl)c(S(N)(=O)=O)cc2S(=O)(=O)N1` (configuration not stated), with 222 °C.
With `N#C/C(=C/c1ccccc1)c1ccc(Cl)cc1`, the melting point was determined as 116 °C.
For `N#Cc1cn(C2CC2)c(=O)[nH]c1=O` the value was 254 to 258 °C; for `NCCc1cccc(CCO)c1`, 264 °C.
For `Fc1c(F)c(F)c(S)c(F)c1F` the value was -24 °C.
Turning to `N#Cc1ccc(OC2CCOCC2)cc1`, the melting point was in the range of 109 to 112 °C.
`CC(=O)c1cc(O)ccc1O`: the melting point is 206 °C.
Then `FC1(F)C(Cl)=C(Cl)C(F)(F)C(F)(F)C1(F)F`, with -70 °C.
Then `CC(C)(C)c1ccc(CSc2cnn(C(C)(C)C)c(=O)c2Cl)cc1`, with 112 °C.
For the compound `CNCC(=O)O`, the melting point was determined as 208 °C.
The compound `CCCCCCC(C=O)=Cc1ccccc1` gave a melting point of 39.2 °C.
Then `Cc1cc(C(F)(F)F)n2nc(N)c(/N=N/c3c(Cl)cc(Cl)cc3Cl)c2n1`, with 189 °C; and `OCC1OC=CC(O)C1O` (configuration not stated), with 99 to 103 °C; and `CN(C)c1ccc(C=O)c(F)c1C#N`, with 125 to 127 °C.
Then `CC1(CC(=O)O)OCCc2sccc21` (configuration not stated), with 92.5 to 93.5 °C.
Then `N#C/C(=N/Nc1ccccc1)c1nc(-c2ccccc2)cs1`, with 175 °C; and `CO[C@]1(CBr)O[C@H](COC(=O)c2ccc(C)cc2)[C@@H](OC(=O)c2ccc(C)cc2)[C@@H]1OC(=O)c1ccc(C)cc1`, with 148 to 149 °C; and `Cc1nn(C)c(C)c1S(=O)(=O)Cl`, with 39 to 42 °C.
In turn, `CCCCc1ccccc1O` showed a melting point of -20 °C.
On to `N#C/C(=N\Nc1cccc(F)c1)c1nc2ccccc2s1`, for which the melting point was determined as 196 °C.
For `O=c1[nH]c(=O)n(CCO)c2c1CCCC2` the value was 275 to 278 °C.
Then `O=c1[nH]c(=O)n(C2CC(O)C(CO)O2)cc1Br` (configuration not stated), with 192 °C; and `O=C1c2ccccc2C(=O)N1CC#CCCl`, with 118 °C; and `CC(=O)Nc1ccc(I)cc1C(F)(F)F`, with 134 to 136 °C.
For `O=C(O)c1cc2cc([N+](=O)[O-])ccc2o1` the value was 274 to 275 °C.
Take `CC(=O)OC(OC(C)=O)c1ccco1`: the melting point stood at 53.3 °C.
As for `O=C(Nc1ccccc1)OCCc1ccc(CCOC(=O)Nc2ccccc2)cc1`, the melting point turned out to be 213 °C.
In the case of `O=C(CBr)c1ccc(Cl)c([N+](=O)[O-])c1`, the melting point fell in the range of 83 to 85 °C.
Then `CC(CCC(O)(Cl)Cl)C1CCC2C3C(O)CC4CC(O)CCC4(C)C3CC(O)C12C` (configuration not stated), with 162 to 170 °C.
For `CC(C)C(C)C(=O)O` (configuration not stated) the value was -1.5 °C; for `CC(C)(C)CC(=O)C=C1Nc2ccccc2NC1=CC(=O)CC(C)(C)C`, 220 to 222 °C.
For `CCOC(C/N=C/c1ccc(/C=N/CC(OCC)OCC)c([N+](=O)[O-])c1)OCC` the value was 38 °C; for `O/N=C(\Cc1ccccc1)c1ccc2ccccc2c1`, 128 to 130 °C; for `Cc1cnc2ccccc2c1C`, 73.5 °C.
As for `C1OC2COCOC2C2OCOCC2O1` (configuration not stated), the melting point is 232 to 233 °C.
For `COc1ccc(C=NNC(=O)c2ccncc2)cc1OC` the value was 189 °C.
Then `O=C(O)Cc1c(Cl)cccc1C(F)(F)F`, with 151 °C.
For `Cn1cc(Br)c(CCl)n1` the value was 76.5 to 78.5 °C.
`O=C(NCc1ccccc1)C(C(F)(F)F)C(F)(F)F` displayed a melting point of 194 °C.
For `CC(=O)c1c2c(c(C(C)=O)c3c1CCCN3)NCCC2` the value was 143 °C; for `COc1cc(O)cc(OC)c1OC`, 146 to 149 °C.
Compound `O=[N+]([O-])c1c(N2CCCCC2)cc(Cl)c2nonc12` displayed a melting point of 159 to 161 °C.
Then `CCOC(=O)C#Cc1cccc(C#CC(=O)OCC)c1`, with 56 °C; and `CCCCCCCCCCCCCCCCCCN(C)C`, with 22.9 °C.
Then `O=c1[nH]nc2ccccn12`, with 234 °C.
Then `CCOC(=O)C1C(=N)Oc2c(c(=O)oc3ccccc23)C1c1ccc(Br)cc1` (configuration not stated), with 192 °C; and `COP(=S)(OC)Oc1ccc(Sc2ccc(OP(=S)(OC)OC)cc2)cc1`, with 30.3 °C.
With `NC(=O)c1ccc(F)c(C(F)(F)F)c1`, the melting point came to 84.5 °C.
Consider `O=C(O)c1ccccc1OC1CCOCC1`, for which the melting point lay within 53 to 54 °C.
Then `Cc1cc(C)cc(P(c2cc(C)cc(C)c2)c2cc(C)cc(C)c2)c1`, with 160 to 162 °C; and `O=C(O)c1cncc(-c2cccs2)c1`, with 261 °C.
The compound `Cc1oc(S(=O)(=O)N(C)C)cc1C(=O)O` returned a melting point of 169 °C.
For `Cc1[nH]c2ccccc2c1C` the value was 106 °C.
Then `CC(O)CN(CC(C)O)CC(C)O` (configuration not stated), with 48 to 52 °C.
Then `Cc1nn(C)c(C)c1C=O`, with 81.5 °C; and `CC(=O)C12CC3CC(CC(C3)C1)C2`, with 53 to 55 °C.
In turn, `O=C1OC(=O)C2Cc3ccccc3CC12` (configuration not stated) returned a melting point of 188 °C.
For `CSc1nc2[nH]c(=S)n(Cc3ccccc3)c(=O)c2n1C` the value was 231 to 233 °C.
For `CNc1ccc(OC)cc1` the value was 33 to 36 °C.
`C#CCCCCCC#C` gave a melting point of -21 °C.
`CCN1C(=O)CCC1=O`: the melting point was 26 °C.
Then `Nc1ncccc1Br`, with 66 °C.
As for `CCOC(=O)c1cc2c(=O)oc3ccccc3c2n(Cc2ccccc2)c1=O`, the melting point was found to be 212 °C.
For `Cc1n[nH]c(C)c1/C=C/c1ccccc1`, the melting point was 184 °C.
For `CC(=O)Nc1ccccc1N=Nc1ccccc1` the value was 123 °C; for `Cc1ccc(C#N)cc1C`, 67 to 69 °C; for `CCCCCCC(=O)CCCCC`, 10 °C.
For `COc1ccc2c(c1O)-c1cccc3c1C(C2)N(C)CC3` (configuration not stated) the value was 124 °C.
For `c1cnc2c(c1)OCCN2` the value was 85 to 86 °C; for `O=C(CNc1ccccc1)Nc1ccc(Br)cc1`, 154 °C; for `O=C(O)/C=C/c1ccc(F)c(F)c1`, 193 to 198 °C.
For `CC(C)(C)c1cc(C(C)(C)C)c(O)c(C(C)(C)C)c1`, the melting point turned out to be 131 °C.
Then `Nc1ccc(C(=O)c2ccccc2)cc1N`, with 117 °C.
For `N#CCS(=O)(=O)Cc1cccc(C(F)(F)F)c1` the value was 119 to 121 °C; for `CSC#N`, -5 °C.
`Clc1cc2oc3c(Cl)c(Cl)ccc3c2c(Cl)c1Cl`: the melting point came out at 206 °C.
Then `O=c1[nH]ncc2ccccc12`, with 188 °C.
The compound `O=C(O)c1c(F)c(F)c(F)c(C(=O)O)c1F` registered a melting point of 209 to 213 °C.
As for `Cc1o[nH]c(=O)c1CC(N)C(=O)O` (racemic), the melting point is 240 to 252 °C.
For `CC(C)=NNC(N)=O` the value was 182 °C; for `Nc1nc(=O)[nH]cc1Br`, 240 to 243 °C.
As to `CC(=NO)c1ccc2c(c1)CC(C)O2` (configuration not stated), the melting point was 83 to 85 °C.
Then `Cc1nc(-c2ccc(C(F)(F)F)cc2)sc1C(=O)CBr`, with 82 to 84 °C.
Then `O=[N+]([O-])c1ncccc1Br`, with 104 °C; and `Oc1ccc2ccccc2c1Br`, with 84 °C; and `Nc1cccc2c(N)cccc12`, with 190 °C.
For `CN1CCN(Cc2cccc(I)c2)CC1` the value was 81 to 83 °C.

As usually defined, the melting point is the temperature of the solid-liquid transition.
